Assay results published in ChEMBL document CHEMBL3244296, “3-Aryl- and 3-hydroxy-3-aryloctahydropyrido[2,1-c][1,4]oxazines. Synthesis, stereochemistry, and central nervous system pharmacological actions” (J Med Chem, 1978).
Active and inactive are the calls of the source. The rule behind the calls is not given here.

What was measured:
Mus musculus [1] = experiment: Reduction in spontaneous locomotor activity in mouse at 40 mg/kg, ip measured for 30 mins; type: functional, organism-based; set-up: dose 40 mg/kg
Mus musculus [2] = experiment: Anticonvulsant activity in mouse assessed as protection against maximal electroshock-induced seizures at <= 300 mg/kg, ip; type: functional, organism-based; set-up: dose 300 mg/kg
Mus musculus [3] = experiment: Anticonvulsant activity in ip dosed mouse assessed as protection against subcutaneous metrazol-induced seizures; type: functional; conditions: read-out: MED
Mus musculus [4] = experiment: Anticonvulsant activity in mouse assessed as protection against subcutaneous metrazol-induced seizures at <= 300 mg/kg, ip; type: functional, organism-based; set-up: dose 300 mg/kg
Rattus norvegicus [5] = experiment: Toxicity in Sprague-Dawley rat assessed as lethality at 20 to 40 mg/kg, ip; type: organism-based; set-up: dose 20-40 mg/kg, route intraperitoneal; conditions: in vivo
Rattus norvegicus [6] = experiment: Anorexic activity in Sprague-Dawley rat assessed as reduction in food intake at […], ip relative to control; type: functional; set-up: scale not given: the % may be the effect or the level left
Rattus norvegicus [7] = experiment: Anorexic activity in Sprague-Dawley rat assessed as reduction in food intake at 10 to 40 mmol/kg, ip; type: functional, organism-based
[8] = Toxicity in ip dosed mouse assessed as lethality; type: organism-based; conditions: in vivo
Mus musculus [9] = experiment: Anticonvulsant activity in ip dosed mouse assessed as protection against maximal electroshock-induced seizures measured as lowest dose required for activity; type: functional; conditions: read-out: MED
Mus musculus [10] = experiment: Neurotoxicity in ip dosed mouse assessed as time to reach peak effect by rotarod test; type: toxicity, organism-based; conditions: in vivo
Mus musculus [11] = experiment: Stimulation of spontaneous locomotor activity in mouse at 20 mg/kg, ip measured for 30 mins relative to control; type: functional
Mus musculus [12] = experiment: Anticonvulsant activity in ip dosed mouse assessed as time to reach peak effect; type: functional
Rattus norvegicus [13] = experiment: Anorexic activity in ip dosed Sprague-Dawley rat assessed as dose required to reduce food intake by 50%; type: functional
Rattus norvegicus [14] = experiment: Anorexic activity in Sprague-Dawley rat assessed as reduction in food intake at 5 to 20 mmol/kg, ip; type: functional, organism-based
[15] = Protective index, ratio of TD50 for neurotoxicity in ip dosed mouse to ED50 for anticonvulsant activity in ip dosed mouse; type: toxicity, organism-based; conditions: in vivo, read-out: Ratio TD50/ED50
[16] = Neurotoxicity in ip dosed mouse by rotarod test; type: toxicity, organism-based; conditions: in vivo
Mus musculus [17] = experiment: Anticonvulsant activity in ip dosed mouse assessed as protection against maximal electroshock-induced seizures; type: functional
Mus musculus [18] = experiment: Reduction in spontaneous locomotor activity in mouse at 5 mg/kg, ip measured for 30 mins relative to control; type: functional; set-up: scale not given: the % may be the effect or the level left; conditions: route intraperitoneal
Mus musculus [19] = experiment: Reduction in spontaneous locomotor activity in mouse at 20 mg/kg, ip measured for 30 mins relative to control; type: functional, organism-based; set-up: dose 20 mg/kg

Row | Compound | Activity (Mus musculus [1]) | Activity (Mus musculus [4]) | minimal effective dose (Mus musculus [9]) [mg/kg] | also measured
1 | COc1ccc(C2(O)CN3CCCCC3CO2)cc1OC.Cl (configuration not stated) | Active | – | – | Activity (Mus musculus [2]): inactive; minimal effective dose (Mus musculus [3]): 100 mg/kg
2 | COc1ccc(C2(O)CN3CCCCC3CO2)cc1 (configuration not stated) | Active | inactive | – | Activity (Mus musculus [2]): inactive
3 | Cl.Clc1ccc(C2CN3CCCCC3CO2)cc1 (configuration not stated) | Active | – | – | Activity (Rattus norvegicus [5]): Toxic; Activity (Rattus norvegicus [6]): 40%; Activity (Rattus norvegicus [7]): Active
4 | Brc1ccc(C2CN3CCCCC3CO2)cc1 (configuration not stated) | Active | – | – | –
5 | Fc1ccc(C2CN3CCCCC3CO2)cc1 (configuration not stated) | Active | inactive | – | Activity (Mus musculus [2]): inactive
6 | Cl.OC1(c2ccc(C(F)(F)F)cc2)CN2CCCCC2CO1 (configuration not stated) | Active | inactive | 100 | LD50 [8]: 468000 µmol/kg; Time (Mus musculus [10]): 0.5 h; Activity (Mus musculus [11]): Active; Time (Mus musculus [12]): 0.5 h
7 | Cl.c1ccc(C2CN3CCCCC3CO2)cc1 (configuration not stated) | Active | inactive | 100 | Activity (Rattus norvegicus [13]): 108.4 mmol/kg; Activity (Rattus norvegicus [7]): inactive
8 | CC(=O)Oc1cccc(C2(O)CN3CCCCC3CO2)c1 (configuration not stated) | inactive | – | – | –
9 | COc1cccc(C2(O)CN3CCCCC3CO2)c1.Cl (configuration not stated) | Active | inactive | 100 | –
10 | Cl.OC1(c2cccc(C(F)(F)F)c2)CN2CCCCC2CO1 (configuration not stated) | Active | inactive | 30 | Activity (Rattus norvegicus [14]): Active; selectivity ratio [15]: 2.77; Time (Mus musculus [10]): 0.5 h; TD50 [16]: 218000 µmol/kg; Activity (Rattus norvegicus [13]): 29.6 mmol/kg; ED50 (Mus musculus [17]): 78700 µmol/kg; Time (Mus musculus [12]): 0.5 h
11 | O=[N+]([O-])c1ccc(C2(O)CN3CCCCC3CO2)cc1 (configuration not stated) | inactive | – | – | –
12 | Cl.OC1(c2ccccc2)CN2CCCCC2CO1 (configuration not stated) | Active | inactive | 100 | –
13 | CC(=O)Oc1cccc(C2CN3CCCCC3CO2)c1 (configuration not stated) | inactive | – | – | –
14 | Cc1ccc(C2CN3CCCCC3CO2)cc1 (configuration not stated) | Active | inactive | – | Activity (Mus musculus [2]): inactive
15 | Oc1ccc(C2CN3CCCCC3CO2)cc1 (configuration not stated) | Active | – | – | –
16 | CC(=O)Nc1ccc(C2CN3CCCCC3CO2)cc1 (configuration not stated) | Active | – | – | –
17 | COc1cc(C2(O)CN3CCCCC3CO2)cc(OC)c1OC.Cl (configuration not stated) | Active | – | – | Activity (Mus musculus [2]): inactive; minimal effective dose (Mus musculus [3]): 300 mg/kg

Row | Compound | Activity (Mus musculus [1]) | Activity (Mus musculus [4]) | minimal effective dose (Mus musculus [9]) [mg/kg] | also measured
18 | Cl.FC(F)(F)c1ccccc1C1CN2CCCCC2CO1 (configuration not stated) | Active | – | 30 | Time (Mus musculus [10]): 0.5 h; TD50 [16]: 716000 µmol/kg; minimal effective dose (Mus musculus [3]): 300 mg/kg; Time (Mus musculus [12]): 0.5 h
19 | OC1(c2ccc(Br)cc2)CN2CCCCC2CO1 (configuration not stated) | Active | – | – | –
20 | COc1ccc(C2CN3CCCCC3CO2)cc1 (configuration not stated) | Active | – | – | –
21 | Cl.OC1(c2ccc(F)cc2)CN2CCCCC2CO1 (configuration not stated) | Active | inactive | 100 | –
22 | Cc1ccc(C2(O)CN3CCCCC3CO2)cc1.Cl (configuration not stated) | Active | inactive | 100 | –
23 | CN(C)CCCN1c2ccccc2Sc2ccc(Cl)cc21.Cl [CHLORPROMAZINE HYDROCHLORIDE] | – | – | – | Activity (Mus musculus [18]): 83.6%
24 | COc1cccc(C2CN3CCCCC3CO2)c1 (configuration not stated) | Active | – | – | –
25 | Cl.FC(F)(F)c1ccc(C2CN3CCCCC3CO2)cc1 (configuration not stated) | Active | – | 30 | Time (Mus musculus [10]): 0.5 h; TD50 [16]: 408000 µmol/kg; minimal effective dose (Mus musculus [3]): 300 mg/kg; Time (Mus musculus [12]): 0.5 h
26 | COc1ccc(C2CN3CCCCC3CO2)cc1OC (configuration not stated) | Active | – | – | –
27 | CCNC(C)Cc1cccc(C(F)(F)F)c1.Cl (configuration not stated) [FENFLURAMINE HYDROCHLORIDE] | – | – | – | Activity (Rattus norvegicus [13]): 16.8 mmol/kg
28 | OC1(c2ccc(Cl)cc2)CN2CCCCC2CO1 (configuration not stated) | Active | – | – | Activity (Rattus norvegicus [7]): inactive
29 | COc1cc(C2CN3CCCCC3CO2)cc(OC)c1OC (configuration not stated) | Active | – | – | –
30 | Cl.FC(F)(F)c1cccc(C2CN3CCCCC3CO2)c1 (configuration not stated) | Active | inactive | 30 | selectivity ratio [15]: 3.11; Time (Mus musculus [10]): 0.5 h; TD50 [16]: 263000 µmol/kg; Activity (Rattus norvegicus [13]): 55.9 mmol/kg; ED50 (Mus musculus [17]): 84600 µmol/kg; Time (Mus musculus [12]): 0.5 h; Activity (Rattus norvegicus [7]): Active
31 | Cl.OC1(c2ccccc2C(F)(F)F)CN2CCCCC2CO1 (configuration not stated) | Active | inactive | 30 | Time (Mus musculus [10]): 0.5 h; TD50 [16]: 547000 µmol/kg; Time (Mus musculus [12]): 0.5 h
32 | Oc1cccc(C2CN3CCCCC3CO2)c1 (configuration not stated) | inactive | – | – | Activity (Mus musculus [19]): Active
33 | CCC1(c2ccccc2)C(=O)N=C([O-])NC1=O.[Na+] (configuration not stated) [PHENOBARBITAL SODIUM] | – | – | – | selectivity ratio [15]: 3.88; Activity (Mus musculus [11]; route intraperitoneal): 215%; TD50 [16]: 333000 µmol/kg; ED50 (Mus musculus [17]): 85700 µmol/kg
